Measurements reported in patent publication US20220249637A1, “COMBINATION THERAPY OF A CELL-MEDIATED CYTOTOXIC THERAPY AND AN INHIBITOR OF A PROSURVIVAL BCL2 FAMILY PROTEIN” (Juno Therapeutics, Inc., priority 2019, published 2022).

Columns and labels:
[1] = system: anti-CD19 CAR T cells; assay: Caspase 3 expression and expansion of CAR T cells incubated with anti-ID beads and venetoclax; assay type: cell-based; details: 0.01, 0.1, 1 or 10 μM, 48 hours post-stimulation
Protocol: Anti-CD19 CAR-expressing T cell compositions from healthy donors were incubated with anti-ID antibody-coated beads at 37° C. in the presence of increasing concentrations of venetoclax (0.01 μM, 0.1 μM, 1 μM, or 10 μM) for 48 hours. As a control, CART cells were incubated under the same conditions, but without venetoclax. Caspase 3 expression, viability, and expansion kinetics of the CAR T cells were subsequently assessed.

[2] = system: RL cells; assay: RL target cell co-culture with CAR T cells and venetoclax (NLR microscopy); assay type: cell-based; details: with CAR T cells E:T 1:1, 0.1 venetoclax
Protocol: Anti-CD19 CAR-expressing T cell compositions, generated as described in Example 1, were cultured with the CD19-expressing lymphoma target cell line RL. Target cells were engineered with a lentiviral reagent to express NucLight Red (NLR) to permit tracking of the cells by microscopy. […] The anti-CD19 CART cells were co-cultured with target RL cells at an E:T ratio of 1:1, and the co-cultures were carried out in the presence of 0.1 μM of the exemplary BCL2 inhibitor venetoclax. For comparison, target cells were incubated only in the presence of the CAR T cells or 0.1 μM of the inhibitor.

[3] = system: RL target cells; assay: Co-culture of tumor cells and CAR T cells, venetoclax added at initiation or 24, 48 or 72 hours later (Example 9): tumor cell killing; assay type: cell-based, human
Protocol: FIGS. 14A and 14B show the number of CD3+CAR+ T cells and RL target cells, respectively, following a 6-day co-culture. Various concentrations of an exemplary BCL2 inhibitor were provided in the co-culture at its initiation, or 24, 48, or 72 hours after the initiation of co-culture.
Thus, in some cases, the cytotoic effects of a BCL2 inhibitor, e.g. venetoclax, and a T cell therapy (e.g. CAR T cells) may be synergistic to result in cell death of cells otherwise resistant to treatment with the T cell therapy alone. In some cases, administration of the inhibitor, e.g. venetoclax, may sensitize otherwise resistant cancer cells to CAR T cell-mediated killing when it is administered within or at about 7 days after administration of the cell therapy.

[4] = system: RL spheroids; assay: RL spheroids co-cultured with chronically stimulated anti-CD19 CAR T cells; assay type: cell-based; details: 8 days
Protocol: Anti-CD19 CAR-expressing T cells, generated from healthy donors as described above, were chronically stimulated under conditions to exhaust T cell activity by incubation for 8 days with beads coated in anti-idiotypic (anti-ID) antibody directed against the CAR. After the 8 days of chronic stimulation, the anti-CD19 CAR-expressing T cells were harvested and subsequently co-cultured with RL cells engineered to express NLR for 8 days at an E:T ratio of 1:1. As a control, RL cells were cultured in the absence of anti-CD19 CAR T cells. Subtherapeutic concentrations of the exemplary BCL2 inhibitor venetoclax (0.01 μM or 0.1 μM) were added to the cultures, and the number of cells was assessed over time (FIG. 6A).
In another experiment, spheroids were generated from CD19-expressing RL cells as previously described, and co-cultured for 8 days with anti-CD19 CAR T cells at an E:T ratio of 1:1 and increasing concentrations of venetoclax (0.01 μM, 0.1 μM, or 1.0 μM), or with only corresponding concentrations of venetoclax. As before, the anti-CD19 CAR T cells were chronically stimulated with anti-ID antibody-coated beads prior to co-culture with the RL spheroids. […] Overall, the size of the RL spheroids cultured with both anti-CD19 CAR T cells and venetoclax decreased more, and with lower concentrations of venetoclax, compared to that of RL spheroids cultured with just venetoclax.

[5] = system: cancer cells resistant to CAR T cell-mediated killing; assay: T cell-mediated killing of cancer cells by CAR T cells in presence of BCL2 inhibitor; assay type: cell-based; details: cancers resistant to T cell therapy alone, low doses without activity on tumor alone
[6] = system: CD3+ CAR T cells; assay: Delayed addition of venetoclax to RL / CAR T co-culture, CAR T cell number; assay type: cell-based; details: 6 days
Protocol: RL target cells were co-cultured with CD19-targeting CAR T cells, generated substantially as described in Example 1, for 6 days in the absence or presence of the exemplary BCL2 inhibitor venetoclax (0.01 μM, 0.1 μM, or 1.0 μM). Venetoclax was added concurrently with co-culture or 24, 48, or 72 hours after the start of co-culture. As a control, RL target cells were cultured in the presence of venetoclax, but without CAR T cells.
After 6 days of co-culture, the number of CD3+ CAR T cells and target cells was assessed.

[7] = system: human plasma proteins; details: cited from earlier work
[8] = system: anti-CD19 CAR T cells; assay: CAR T cell viability, ATP luciferin reporter assay after 96 hours anti-idiotypic antibody stimulation; assay type: cell-based, human
Protocol: Anti-CD19 CAR-expressing T cell compositions were generated from three human adult donors, substantially as described in Example 1. Anti-CD19 CAR T cells were stimulated for 96 hours with an anti-idiotypic antibody in the presence of an exemplary BCL2 inhibitor venetoclax solubilized in dimethylsulfoxide (DMSO). Control anti-CD19 CAR T cells were stimulated for 96 hours with the anti-idiopathic antibody in the presence of an equal amount of DMSO. Specifically, anti-CD19 CAR-expressing cells were added to the wells of a 96-well plate that had been pre-coated with an anti-idiotypic antibody specific to the scFv of the anti-CD19 CAR-expressing T cells described in Example 1 at a concentration of 30 μg/ml. The cells were cultured in the presence of 5% human serum at 37° C. and 5% CO2. After 96 hours, cells were lysed and ATP from viable cells was detected via a luciferin reporter assay and reported as relative luminescence units. Venetoclax-treated CAR T cell counts were assessed and normalized to DMSO control CAR T cell counts.

In the case of `CC1(C)CCC(CN2CCN(c3ccc(C(=O)NS(=O)(=O)c4ccc(NCC5CCOCC5)c([N+](=O)[O-])c4)c(Oc4cnc5[nH]ccc5c4)c3)CC2)=C(c2ccc(Cl)cc2)C1` [venetoclax], the “percentage of CAR+ T cells expressing caspase 3” value [1] is reported as “larger percentages of CAR+ T cells expressing caspase 3”, the target cell killing [2] is reported as “sensitized to the CD19-directed CAR T cell killing” and the “antitumor effects of CAR T cells” value ([3]; inhibitor administered when activation-induced cell death of CAR T cells has peaked (e.g. 2-7 days after CAR T cells), Example 9) is reported as “potent antitumor effects”. For the same compound, the “sensitization of tumor cells to CAR T cell-mediated killing” value ([3]; therapeutic dose administered 48 or 72 hours after initiation of co-culture of tumor cells and CAR T cells) was “able to sensitize the tumor cells to CAR T cell-mediated killing”, the tumor size ([4]; venetoclax 0.01, 0.1 or 1.0 μM in the absence of CAR T cells) was “decreases in tumor size were only observed with 1 μM venetoclax” and the tumor size ([4]; with chronically stimulated CAR T cells E:T 1:1, venetoclax 0.01, 0.1 or 1.0 μM) was “greater decreases in tumor size were seen with increasing concentrations of venetoclax”. For the same compound, the “T cell-mediated killing of cancer cells by a T cell therapy (CAR T cells)” value [5] was “improves T cell-mediated killing of cancer cells”, the “number of CD3+ CAR T cells” value ([6]; 0.01 μM, all time points) was “not observed to reduce CD3+ CAR T cell number” and the “number of CD3+ CAR T cells” value ([6]; 0.1 μM or 1.0 μM added concurrently or 24 hours later) was “reduced”. The “number of CD3+ CAR T cells” value ([6]; added 48 or 72 hours following co-culture, any concentration) was “a reduction in CD3+ CAR T cells was not observed”, the plasma protein binding [7] was “can bind human plasma proteins” and the IC50 ([8]; T-cell, average among three donors, 5% human serum) was 7.9 µM. For the same compound, the “percentage of viable anti-CD19 CAR-expressing T cells” value ([8]; increasing doses) was “decreased with increasing doses of venetoclax”.
